Data reported in the NIST ThermoML archive (doi:10.1021/je900550v).

Details: 101.33 kPa, Liquid; for speed of sound: Pulse-echo method; for mass density: Vibrating tube method

CCCCC(=O)[O-].C[NH2+]CCO [2-hydroxy-N-methylethanaminium pentanoate]
Details	mass density [kg/m3]	speed of sound [m/s]	viscosity [mPa·s]
308.15 K	1009.51	1517.6	133.08
308.4 K	1009.34	1516.8	–
308.65 K	1009.18	1516.1	–
308.9 K	1009.01	1515.3	–
309.15 K	1008.84	1514.5	–
309.4 K	1008.67	1513.8	–
309.65 K	1008.5	1513	–
309.9 K	1008.33	1512.2	–
310.15 K	1008.16	1511.4	117.28
310.4 K	1007.99	1510.7	–
310.65 K	1007.82	1509.9	–
310.91 K	1007.65	1509.1	–
311.16 K	1007.48	1508.3	–
311.4 K	1007.31	1507.6	–
311.65 K	1007.14	1506.8	–
311.91 K	1006.97	1506	–
312.16 K	1006.8	1505.3	–
312.41 K	1006.63	1504.5	–
312.66 K	1006.46	1503.7	–
312.91 K	1006.29	1503	–
313.15 K	–	–	102.38
313.16 K	1006.12	1502.2	–
313.4 K	1005.95	1501.4	–
313.66 K	1005.78	1500.7	–
313.9 K	1005.61	1499.9	–
314.15 K	1005.44	1499.1	–
314.4 K	1005.27	1498.3	–
314.65 K	1005.09	1497.6	–
314.9 K	1004.92	1496.8	–
315.15 K	1004.75	1496	91.92
315.41 K	1004.58	1495.3	–
315.65 K	1004.4	1494.5	–
315.91 K	1004.24	1493.8	–
316.16 K	1004.07	1493	–
316.41 K	1003.89	1492.2	–
316.66 K	1003.72	1491.5	–
316.91 K	1003.55	1490.7	–
317.16 K	1003.38	1489.9	–
317.4 K	1003.21	1489.2	–
317.66 K	1003.04	1488.4	–
317.91 K	1002.86	1487.6	–
318.15 K	–	–	80.38
318.16 K	1002.69	1486.9	–
318.41 K	1002.52	1486.1	–
318.65 K	1002.35	1485.3	–
318.9 K	1002.18	1484.6	–
319.16 K	1002	1483.8	–
319.41 K	1001.83	1483.1	–
319.65 K	1001.66	1482.3	–
319.91 K	1001.49	1481.5	–
320.16 K	1001.32	1480.8	–
320.41 K	1001.14	1480	–
320.65 K	1000.97	1479.2	70.74
320.91 K	1000.8	1478.5	–
321.15 K	1000.62	1477.7	–
321.41 K	1000.45	1476.9	–
321.66 K	1000.28	1476.1	–
321.9 K	1000.1	1475.4	–
322.15 K	999.932	1474.6	–
322.41 K	999.756	1473.8	–
322.65 K	999.586	1473.1	–
322.91 K	999.412	1472.3	–
323.15 K	–	–	66.02
323.16 K	999.237	1471.6	–
323.41 K	999.06	1470.8	–
323.65 K	998.891	1470	–
323.91 K	998.715	1469.2	–
324.16 K	998.543	1468.5	–
324.41 K	998.367	1467.7	–
324.65 K	998.196	1467	–
324.9 K	998.022	1466.2	–
325.16 K	997.846	1465.4	–
325.4 K	997.672	1464.7	–
325.66 K	997.495	1463.9	–
325.9 K	997.325	1463.1	–
326.16 K	997.148	1462.4	–
326.41 K	996.977	1461.6	–
326.66 K	996.8	1460.8	–
326.9 K	996.626	1460.1	–
327.16 K	996.452	1459.3	–
327.4 K	996.278	1458.5	–
327.66 K	996.103	1457.8	–
327.9 K	995.927	1457	–
328.15 K	995.753	1456.2	–
328.41 K	995.577	1455.5	–
328.66 K	995.401	1454.7	–
328.9 K	995.229	1453.9	–
329.16 K	995.05	1453.2	–
329.4 K	994.879	1452.4	–
329.65 K	994.701	1451.6	–
329.9 K	994.528	1450.8	–
330.16 K	994.354	1450.1	–
330.41 K	994.177	1449.3	–
330.66 K	993.999	1448.5	–
330.91 K	993.824	1447.8	–
331.16 K	993.649	1447	–
331.41 K	993.472	1446.2	–
331.66 K	993.296	1445.5	–
331.91 K	993.121	1444.7	–
332.16 K	992.945	1443.9	–
332.41 K	992.768	1443.2	–
332.66 K	992.592	1442.4	–
332.91 K	992.415	1441.6	–
333.16 K	992.239	1440.8	–
333.41 K	992.064	1440.1	–
333.66 K	991.886	1439.3	–
333.91 K	991.71	1438.5	–
334.16 K	991.536	1437.8	–
334.41 K	991.358	1437	–
334.66 K	991.18	1436.2	–
334.91 K	991.004	1435.5	–
335.16 K	990.827	1434.7	–
335.41 K	990.651	1434	–
335.66 K	990.472	1433.2	–
335.91 K	990.295	1432.4	–
336.16 K	990.117	1431.7	–
336.41 K	989.938	1430.9	–
336.66 K	989.761	1430.1	–
336.9 K	989.584	1429.3	–
337.16 K	989.407	1428.6	–
337.4 K	989.229	1427.8	–
337.66 K	989.051	1427	–
337.9 K	988.872	1426.3	–
338.15 K	988.703	1425.6	–
